Source: PMC9177418, “Global analysis of biosynthetic gene clusters reveals conserved and unique natural products in entomopathogenic nematode-symbiotic bacteria” (Nature Chemistry, 2022)
pIC50: −log10 of the molar value.

Legend:
Assay type in all cases: biochemical
[1] = biological target: T1, yeast 20S proteasome β5 subunit (chymotrypsin-like) (Saccharomyces cerevisiae, UniProt P30656); assay: X-ray crystal structure at […] Å; fluorogenic Suc-Leu-Leu-Val-Tyr-AMC inhibition assay with purified yCP
T1 construct: gene PRE2; purified yeast 20S proteasome core particle (yCP); with other subunits of the yeast 20S proteasome core particle (α1–7β1–7β1–7α1–7)
T1 sequence (P30656 76-287): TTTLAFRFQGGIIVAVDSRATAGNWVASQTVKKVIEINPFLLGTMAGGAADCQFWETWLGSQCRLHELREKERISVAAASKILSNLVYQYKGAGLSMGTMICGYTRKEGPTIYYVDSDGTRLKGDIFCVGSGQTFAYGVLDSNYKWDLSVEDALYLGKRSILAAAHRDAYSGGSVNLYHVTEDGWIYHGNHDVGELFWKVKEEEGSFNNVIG

[2] = biological target: T2, yeast 20S proteasome β1 subunit (caspase-like) (Saccharomyces cerevisiae, UniProt P38624); assay: X-ray crystal structure ([…] soak; ligand map diffuse at β[…]); fluorogenic inhibition assay with purified yCP
T2 construct: gene PRE3; purified yeast 20S proteasome core particle (yCP); with other subunits of the yeast 20S proteasome core particle (α1–7β1–7β1–7α1–7)
T2 sequence (P38624 20-215): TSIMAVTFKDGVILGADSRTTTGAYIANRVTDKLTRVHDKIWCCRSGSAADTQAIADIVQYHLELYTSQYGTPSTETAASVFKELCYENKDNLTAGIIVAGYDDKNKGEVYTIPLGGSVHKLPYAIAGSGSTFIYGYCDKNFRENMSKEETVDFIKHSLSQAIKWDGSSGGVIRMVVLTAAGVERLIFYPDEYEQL

[3] = biological target: T3, yeast 20S proteasome β2 subunit (trypsin-like) (Saccharomyces cerevisiae, UniProt P25043); assay: as above
T3 construct: gene PUP1; purified yeast 20S proteasome core particle (yCP); with other subunits of the yeast 20S proteasome core particle (α1–7β1–7β1–7α1–7)
T3 sequence (P25043 30-261): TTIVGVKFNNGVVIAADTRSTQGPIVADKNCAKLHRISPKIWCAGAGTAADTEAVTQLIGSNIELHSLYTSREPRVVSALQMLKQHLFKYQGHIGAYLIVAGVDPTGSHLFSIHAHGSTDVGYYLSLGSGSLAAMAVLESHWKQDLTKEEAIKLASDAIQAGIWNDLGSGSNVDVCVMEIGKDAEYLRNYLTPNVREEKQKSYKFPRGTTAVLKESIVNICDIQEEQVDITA

With `CC(C)[C@@H]1C(=O)O[C@H]1C(=O)O` [compound 1, 3-isopropyl-4-oxo-2-oxetanecarboxylic acid] as the compound, how does the pIC50 [1] read?
The pIC50 was 5.21.

What about the pIC50 [2] of the same compound?
The pIC50 was 3.20.

And the pIC50 [3]?
Its pIC50 is 4.22.
